Test results: patent US20100273649A1, “Fungicidal Mixtures III” (BASF SE, priority 2007, published 2010)
Like-named read-outs stand apart in the source and are kept apart here.

Experiments:
Assay type in all cases: cell-based
Botrytis cinerea = assay: Activity against grey mold caused by Botrytis cinerea in the microtiterplate test (Botrici)
Phytophthora infestans = settings: active compound alone, 7 days after inoculation
Pyricularia oryzae = settings: active compound alone, 7 days after inoculation
Septoria tritici = assay: Activity against leaf blotch on wheat caused by Septoria tritici, microtiter test (Septtr); settings: active compound alone, 7 days after inoculation
[1] = Botrytis cinerea, 168 h, active compound alone, 1 ppm, 7 days after inoculation, read-out: Observed efficacy
[2] = Botrytis cinerea, 168 h, active compound alone, 4 ppm, 7 days after inoculation, read-out: Observed efficacy

zinc propylenebis(dithiocarbamate) polymer [Propineb]
Observed efficacy (Botrytis cinerea; active compound alone, 4 ppm, 7 days after inoculation): 21%

Cc1ccc(-c2c(Cl)nc(C#N)n2S(=O)(=O)N(C)C)cc1 [Cyazofamid, 4-chloro-2-cyano-N,N-dimethyl-5-(4-methylphenyl)-1H-imidazole-1-sulfonamide]
inhibition of growth at 0.25 ppm (Botrytis cinerea; Botrytis cinerea, 168 h, active compound alone, 0.25 ppm, 7 days after inoculation, read-out: Observed efficacy): 0%

Cc1ccc(C(C)NC(=O)[C@@H](NC(=O)OC(C)C)C(C)C)cc1 (stereo partly drawn) [Iprovalicarb, isopropyl [(1S)-2-methyl-1-(1-p-tolylethylcarbamoyl)propyl]carbamate]
inhibition of growth at 1 ppm (Botrytis cinerea; Botrytis cinerea, 168 h, read-out: Observed efficacy): 2%

COC=C(C(=O)OC)c1ccccc1COc1cccc(C(F)(F)F)n1 [Picoxystrobin, methyl 3-methoxy-2-[2-(6-trifluoromethylpyridin-2-yloxymethyl)phenyl]acrylate]
Observed efficacy (Phytophthora infestans; 0.25 ppm): 66% | Observed efficacy (Pyricularia oryzae; 0.016 ppm): 21%

Cc1cc(C)nc(Nc2ccccc2)n1 [Pyrimethanil, 4,6-di-methylpyrimidin-2-ylphenylamine]
Observed efficacy (Septoria tritici; 16 ppm): 50%

N#Cc1c(Cl)c(Cl)c(Cl)c(C#N)c1Cl [Chlorothalonil, 2,4,5,6-tetrachloroisophthalonitrile]
Observed efficacy (Phytophthora infestans; 0.25 ppm): 20%

COC(=O)N(OC)c1ccccc1COc1ccn(-c2ccc(Cl)cc2)n1 [Pyraclostrobin, pyraclostrobin]
Observed efficacy (Pyricularia oryzae; 0.001 ppm): 38% | Observed efficacy (Septoria tritici; 0.001 ppm): 21%

Fc1ccc([C@]2(Cn3cncn3)O[C@H]2c2ccccc2Cl)cc1 (racemic) [Epoxiconazole, (2RS,3SR)-1-[3-(2-chlorophenyl)-2,3-epoxy-2-(4-fluorophenyl)propyl]-1H-1,2,4-triazole]
Observed efficacy (Phytophthora infestans; 0.25 ppm): 12% | inhibition of growth at 0.063 ppm (Botrytis cinerea; Botrytis cinerea, 168 h, active compound alone, 0.063 ppm, 7 days after inoculation, read-out: Observed efficacy): 4% | Observed efficacy (Septoria tritici; 0.016 ppm): 14%

O=C(OCc1cccc(C(F)(F)F)c1)C(=Cc1ccccc1)C(O)c1cccnc1 (stereo not shown) [I.3, (3-trifluoromethylphenyl)methyl 2-[hydroxyl(pyridine-3-yl)methyl]-3-phenylacrylate]
Observed efficacy (Phytophthora infestans; 1 ppm): 8% | Observed efficacy (Phytophthora infestans; 4 ppm): 10% | Observed efficacy (Pyricularia oryzae; 0.25 ppm): 2% | inhibition of growth at 1 ppm (Botrytis cinerea; [1]): 9% | inhibition of growth at 4 ppm (Botrytis cinerea; [2]): 16% | Observed efficacy (Septoria tritici; 0.063 ppm): 51%

O=C1C2CC=CCC2C(=O)N1SC(Cl)(Cl)Cl (stereo not shown) [Captan, 2-trichloromethylsulfanyl-3a,4,7,7a-tetrahydroisoindole-1,3-dione]
Observed efficacy (Phytophthora infestans; 1 ppm): 26% | inhibition of growth at 1 ppm (Botrytis cinerea; [1]): 64%

O=C(Nc1ccccc1-c1ccc(Cl)cc1)c1cccnc1Cl [Boscalid, 2-chloro-N-(4′-chlorobiphenyl-2-yl)nicotinamide]
inhibition of growth at 4 ppm (Botrytis cinerea; [2]): 45%

C=C(C(=O)OCc1cccc(C(F)(F)F)c1)C(O)c1cccnc1 (stereo not shown) [I.1, (3-trifluoromethylphenyl)methyl 2-[hydroxyl(pyridine-3-yl)methyl]acrylate]
Observed efficacy (Phytophthora infestans; 1 ppm): 1% | Observed efficacy (Phytophthora infestans; 4 ppm): 0% | Observed efficacy (Phytophthora infestans; 16 ppm): 42% | Observed efficacy (Pyricularia oryzae; 0.016 ppm): 5% | inhibition of growth at 4 ppm (Botrytis cinerea; [2]): 5% | Observed efficacy (Septoria tritici; 0.016 ppm): 9% | Observed efficacy (Septoria tritici; 16 ppm): 47%
